Source: patent publication US11285132B2, “Uses of indolinone compounds” (Oncternal Therapeutics, Inc., priority 2016, dated 2022)

What was measured:
[1] = test system: A4573 cells; assay: Proliferation of Ewing sarcoma A4573 cell line; assay type: cell-based; details: A4573 cells (EWS-FLI1 expressing Ewing sarcoma cell line); read-out: EC50, inhibition of proliferation
From the text: TK216 is a first in class, small molecule that directly binds EWS-FLI1 inhibiting the biological activity of ETS-family transcription factor oncoproteins and is currently under clinical investigation in patients with Ewing sarcoma.

[2] = test system: THP-1; assay: 72 hr CellTiter-Glo, AML cell line; assay type: cell-based; details: Homo sapiens
[3] = test system: HBL-1; assay: 72 hr CellTiter-Glo, DLBCL cell line; assay type: cell-based; details: HBL1
[4] = test system: OCI-Ly19; assay: 72 hr CellTiter-Glo, DLBCL cell line; assay type: cell-based; details: Homo sapiens
[5] = test system: DLBLC cell lines (TMD8, HBL1, U2932); assay: Dose-effect testing in combination with venetoclax; assay type: cell-based
From the text: In each of FIGS. 13-15, the top curve (×) was for the combination therapy, the middle curve (⊚) was for TK216, and the bottom curve (+) was for venetoclax. FIG. 13 is a dose-effect curve for TK216 in combination with venetoclax in the TMD8 cell line. FIG. 14 is a dose-effect curve for TK216 in combination with venetoclax in the U2932 cell line. FIG. 15 is a dose-effect curve for TK216 in combination with venetoclax in the HLB1 cell line.

[6] = test system: 6 DLBCL cell lines (TMD8, U2932, HBL1, OCI-LY-18, WSU-DLCL2, DOHH2); assay: Cell cycle analysis and Annexin V staining; assay type: cell-based; details: 24, 48, 72 h
Procedure: FIGS. 18A and 18B show apoptosis and cell cycle distribution of TK-216 in DLBCL cell lines. FIG. 18A) Induction of apoptosis in DLBCL cell lines exposed to TK-216 (500 nM) for 24, 48 or 72 hrs. In the figures are shown four representative (two ABC and two GCB) results. FIG. 18B) Cell cycle distribution in DLBCL cell lines treated with 500 nM of TK-216 for 24, 48 or 72 hrs. In the figure, two representative (one ABC and one GCB) results are shown. DMSO treatment was used as a control.
(§1) 56 lymphoma cell lines [27 diffuse large B cell lymphoma (DLBCL); 10 mantle cell lymphoma; 6 marginal zone lymphoma; 5 anaplastic large T-cell lymphoma; 8 others] were exposed to TK-216 increasing doses for 72 h using a Tecan D300e Digital Dispenser and 384 well plates. Cell proliferation was measured with MTT. In vivo study was done in NOD-SCID mice; treatments were started with approximately sc 60 mm3 tumor volumes. Sensitivity was not affected by the lymphoma cell of origin (B vs T; activated B cell type DLBCL versus germinal center type DLBCL) or MYC and TP53 status. There was a non-statistically significant trend for lower sensitivity in cell lines bearing BCL2 chromosomal translocation (P=0.07, DLBCL only; P=0.06, all cell lines).

[7] = test system: TMD8 cells xenografts; assay: TMD8 ABC-DLBCL xenograft in NOD-SCID mice; assay type: in vivo; details: 100 mg/Kg, BID
Procedure: NOD-Scid mice subcutaneously inoculated with TMD8 cells (15×10^6) were split in two groups respectively treated with TK-216 (100 mg/kg, BID, po, n=9) and control vehicle (n=10). In each box-plot, the line in the middle of the box represents the median and the box extends from the 25th to the 75th percentile (interquartile range, IQ); the whiskers extend to the upper and lower adjacent values (i.e., ±1.5 IQ).
as §1
The latter synergism could be linked to the previously mentioned negative trend between TK-216 IC50 values and the presence of BCL2 translocation.
(§2) Cell lines were exposed to YK-4-279 or TK-216, alone or in combination with other compounds, for 72 h using a Tecan D300e Digital Dispenser and 96 well plates. Cell proliferation was measured with MTT. Synergy was determined with the Chou-Talalay combination index. Gene expression profiling (GEP) was performed with the Illumina HumanHT 12 Expression BeadChips. In vivo studies were done in NOD-SCID mice and treatments started with 60 mm3 tumor volumes sc.

[8] = test system: KARPAS422; assay: Combination with other agents, MTT, Chou-Talalay combination index; assay type: cell-based
From the text: (§3) Y-axis: CI values. In each box-plot, the line in the middle of the box represents the median and the box extends from the 25th to the 75th percentile (interquartile range, IQ); the whiskers extend to the upper and lower adjacent values (i.e., ±1.5 IQ); outside values have been omitted from the figure. CIs for TK-216/rituximab in TMD8, TK-216/rituximab in Karpas422, TK-216/rituximab in OCI-LY-10 are not plotted due to CI values >3. Combinations tested included bendamustine, bortezomib, ibrutinib, idelalisib, lenalidomide, OTX015 (birabresib, CAS No. 202590-98-5), PQR309 (bimiralisib, CAS No. 1225037-39-7 (free base)), selinexor, venetoclax, and vincristine.
as §2

[9] = test system: SU-DHL-4; assay: as above; assay type: cell-based
From the text: as §3, §2

[10] = test system: TMD8; assay: as above; assay type: cell-based
From the text: as §3, §2

## O=C(CC1(O)C(=O)Nc2c(Cl)ccc(Cl)c21)c1ccc(C2CC2)cc1 (stereo not shown) [TK216, 4,7-Dichloro-3-(2-(4-cyclopropylphenyl)-2-oxoethyl)-3-hydroxyindolin-2-one]
[1]
  EC50: < 200 nM
[2]
  IC50: 152 nM
[3]
  IC50: 304 nM
[4]
  IC50: 106 nM
[5]
  combination effect with venetoclax, dose-effect: synergistic effect across doses
[6]
  cell cycle and apoptosis: time-dependent apoptosis was preceded by a G2/M arrest
[7]; D11, P<0.01 vs control group
  reduction in tumor volume at D11: four-times
[7]; n=9
  tumor growth compared with control group: reduction in tumor growth
[8]; KARPAS422, with OTX015
  effect of TK216 in combination with OTX015: Synergism
[8]; KARPAS422, with PQR309
  effect of TK216 in combination with PQR309: additive effect
[8]; KARPAS422, with bendamustine
  effect of TK216 in combination with bendamustine: additive effect
[8]; KARPAS422, with idelalisib
  effect of TK216 in combination with idelalisib: Synergism
[8]; KARPAS422, with selinexor
  effect of TK216 in combination with selinexor: additive effect
[8]; KARPAS422, with venetoclax
  effect of TK216 in combination with venetoclax: Synergism
[8]; KARPAS422, with vincristine
  effect of TK216 in combination with vincristine: additive effect
[8]; Karpas422, with rituximab, not plotted
  CI values, TK-216/rituximab: > 3
[9]; with OTX015
  effect of TK216 in combination with OTX015: No benefit effects
[9]; with PQR309
  effect of TK216 in combination with PQR309: additive effect
[9]; with bendamustine
  effect of TK216 in combination with bendamustine: No benefit effects
[9]; with idelalisib
  effect of TK216 in combination with idelalisib: No benefit effects
[9]; with selinexor
  effect of TK216 in combination with selinexor: No benefit effects
[9]; with venetoclax
  effect of TK216 in combination with venetoclax: No benefit effects
[9]; with vincristine
  effect of TK216 in combination with vincristine: Synergism
[10]; with OTX015
  effect of TK216 in combination with OTX015: additive effect
[10]; with PQR309
  effect of TK216 in combination with PQR309: additive effect
[10]; with bendamustine
  effect of TK216 in combination with bendamustine: No benefit effects
[10]; with bortezomib
  effect of TK216 in combination with bortezomib: Synergism
[10]; with ibrutinib
  effect of TK216 in combination with ibrutinib: additive effect
[10]; with lenalidomide
  effect of TK216 in combination with lenalidomide: Synergism
[10]; with lidelalisib
  effect of TK216 in combination with lidelalisib: additive effect
[10]; with rituximab, not plotted
  CI values, TK-216/rituximab: > 3
[10]; with selinexor
  effect of TK216 in combination with selinexor: additive effect
[10]; with venetoclax
  effect of TK216 in combination with venetoclax: Synergism
[10]; with vincristine
  effect of TK216 in combination with vincristine: No benefit effects
